Activity data for one compound are collected here from ChEMBL document CHEMBL2074366, “Secretion of sparfloxacin from the human intestinal Caco-2 cell line is altered by P-glycoprotein inhibitors” (Antimicrob Agents Chemother, 1998).

The series addresses ATP-dependent translocase ABCB1 (Homo sapiens, UniProt P08183). Nature of the series: TP_TRANSPORTER: transepithelial transport (basal to apical) in Caco-2 cells. Format: functional, cell-based. On the technique in general: Passage across Caco-2 layers is used to estimate intestinal permeability.

ATP-dependent translocase ABCB1, sequence (P08183 whole entry): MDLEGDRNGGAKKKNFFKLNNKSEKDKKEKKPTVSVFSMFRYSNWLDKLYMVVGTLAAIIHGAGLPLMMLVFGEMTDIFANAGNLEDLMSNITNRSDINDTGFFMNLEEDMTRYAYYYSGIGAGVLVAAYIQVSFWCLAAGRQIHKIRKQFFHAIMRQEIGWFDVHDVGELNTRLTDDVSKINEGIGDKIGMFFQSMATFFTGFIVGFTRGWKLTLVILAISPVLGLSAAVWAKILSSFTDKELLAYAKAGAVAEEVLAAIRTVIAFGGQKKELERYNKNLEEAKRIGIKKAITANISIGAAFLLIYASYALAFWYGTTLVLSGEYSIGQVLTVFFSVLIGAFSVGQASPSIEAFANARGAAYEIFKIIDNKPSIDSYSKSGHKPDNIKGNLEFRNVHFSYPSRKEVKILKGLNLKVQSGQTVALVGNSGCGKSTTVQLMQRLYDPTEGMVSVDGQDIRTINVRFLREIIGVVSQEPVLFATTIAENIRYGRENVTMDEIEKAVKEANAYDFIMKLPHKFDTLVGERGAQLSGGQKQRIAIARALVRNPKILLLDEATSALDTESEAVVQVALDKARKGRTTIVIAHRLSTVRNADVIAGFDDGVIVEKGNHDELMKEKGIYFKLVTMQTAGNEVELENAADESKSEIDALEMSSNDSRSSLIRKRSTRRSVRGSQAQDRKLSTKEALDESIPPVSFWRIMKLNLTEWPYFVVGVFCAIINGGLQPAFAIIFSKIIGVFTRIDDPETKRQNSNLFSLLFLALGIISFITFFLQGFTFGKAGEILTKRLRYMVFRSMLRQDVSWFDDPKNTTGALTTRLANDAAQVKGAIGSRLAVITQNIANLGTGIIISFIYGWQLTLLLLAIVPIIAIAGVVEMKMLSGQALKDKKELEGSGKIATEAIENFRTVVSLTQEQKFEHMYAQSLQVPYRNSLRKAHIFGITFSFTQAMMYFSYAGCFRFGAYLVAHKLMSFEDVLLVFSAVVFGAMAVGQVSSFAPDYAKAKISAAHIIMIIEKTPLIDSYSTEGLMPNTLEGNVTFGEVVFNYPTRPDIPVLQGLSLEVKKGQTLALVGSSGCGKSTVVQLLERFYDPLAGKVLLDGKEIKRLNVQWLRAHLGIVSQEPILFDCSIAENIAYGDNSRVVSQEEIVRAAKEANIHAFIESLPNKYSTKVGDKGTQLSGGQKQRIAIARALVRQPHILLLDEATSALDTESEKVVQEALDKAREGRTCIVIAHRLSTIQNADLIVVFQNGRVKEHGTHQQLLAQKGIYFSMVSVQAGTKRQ

Turning to `C[C@@H]1CN(c2c(F)c(N)c3c(=O)c(C(=O)O)cn(C4CC4)c3c2F)C[C@H](C)N1` [SPARFLOXACIN], the Activity entry is “substrate [+]”.
